Read-outs that look alike come from different tables or passages of the source.
Assays:
HIV-1 (H9/IIIB strain) = test: Multiple round HIV-1 infection assay (Viking assay) in MT4-GFP cells; format: cell-based; settings: MT4-GFP cells infected with HIV-1 H9/IIIB, inhibition of reproductive ratio R0
Method: Assessing Antiviral Potency in a Multiple Round HIV-1 Infection Assay (Viking Assay)
The antiviral activity of the tenofovir prodrugs of the Examples herein was assessed in an assay that measures the rate of replication of HIV in cell culture, termed the Viking assay (Viral KINetics in Green cells) and performed as follows. HIV-1 replication was monitored using MT4-gag-GFP clone D3 (hereafter designated MT4-GFP), which are MT-4 cells modified to harbor a GFP reporter gene, the expression of which is dependent on the HIV-1 expressed proteins tat and rev. Productive infection of an MT4-GFP cell with HIV-1 results in GFP expression approximately 24 h post-infection. MT4-GFP cells were maintained at 37° C./5% CO2/90% relative humidity in RPMI 1640 supplemented with 10% fetal bovine serum, 100 μ/ml penicillin/streptomycin, and 400 μg/ml G418 to maintain the reporter gene. For infections, MT4-GFP cells were placed in the same medium lacking G418 and infected overnight with HIV-1 (H9/IIIB strain) virus at an approximate multiplicity of infection of 0.01 in the same incubation conditions. Cells were then washed and re-suspended in either RPMI 1640 supplemented with 10% or 50% normal human serum (NFIS) at 1.6×10^5 cells/mL (10% NHS or 50% NHS, respectively). Compound plates were prepared by dispensing compounds dissolved in DMSO into wells of 384 well poly-D -lysine-coated plates (0.2 μl/well) using an ECHO acoustic dispenser. Each compound was tested in a 10-point serial 3-fold dilution (typical final concentrations: 8.4 μM-0.42 nM). Controls included no inhibitor (DMSO only) and a combination of three antiviral agents (efavirenz, indinavir, an in-house integrase strand transfer inhibitor at final concentrations of 4 μM each). Cells were added (50 μL/well) to compound plates and the infected cells were maintained at 37° C./5% CO2/90% relative humidity.
infected cells were quantified at two time points, ˜48 h and ˜72 h post -infection, by counting the number of green cells in each well using an Acumen eX3 scanner. The increase in the number of green cells over ˜24 h period gives the reproductive ratio, R0, which is typically 5-15 and has been shown experimentally to be in logarithmic phase (data not shown). Inhibition of R0 is calculated for each well, and IC50s determined by non-linear 4-parameter curve fitting.

[1] = Prodrug stability assay in bio-relevant media (FaSSIF with Pancreatin, simulated gastrointestinal tract conditions); format: in vitro ADME; settings: % parent prodrug remaining at 5 h vs 0 h, 37° C., 0.5 mg/mL Pancreatin in FaSSIF, HPLC area ratio
Method: Prodrug Stability Assay in Bio-Relevant Media
The following assay was employed to evaluate the stability of the prodrugs in simulated gastrointestinal tract conditions. Preparation of fasted state simulated intestinal fluid (FaSSIF) using Phares SIF Powder was carried out according to protocols from Phare Drug Delivery AG (Baselland, Switzerland). For sample preparation, 10 μL stock solutions (10 mM) of prodrug substance in DMSO was added to 990 μL of 0.5 mg/mL Pancreatin solution (Fisher CAS#8049-47-6) in FaSSIF. Two samples were prepared for each compound at initial. If the sample was clear solution at the beginning, ran one sample directly as initial by HPLC; if the sample was not clear at starting, diluted the sample by 100% ACN. Put the other sample under 37° C. and observed the sample at 5 h time-point. At 5 h time point, if the sample was clear solution then performed HPLC analysis directly; if it was not clear solution, diluted the sample by 100% ACN and assayed by HPLC. All the samples were vortexed for 3 min and observed before injection. For the diluted samples, the area will be multiplied by a factor when data analysis. The analysis was carried out with an Agilent 1100 series HPLC with autosampler. The column was usually a Poroshell 120 EC -C18, 4.6×50 mm, 2.7 μm. The flow rate was 1.8 mL/min, and the injection volume was 5 or 10 μL. UV detection was in the range 210-400 nm. The mobile phase consisted of solvent A (water plus 10 mM tetrabutylammonium bromide) and solvent B (acetonitrile) with a gradient of 90% solvent A at 0 min changing to 95% solvent B over 6 min, maintained for 1.5 min, then reverting to 90% solvent A over 1.6 min. The area of the parent in prodrug at 5h time point was divided by the area of the parent in prodrug at 0 h time point, to generate the % claimed parent ratio, which are summarized in Table 2 for GI Tract stability.

[2] = Human immunodeficiency virus 1, IIIB, 10% normal human serum, read-out: Viking, IC50 (10% NHS)
[3] = Human immunodeficiency virus 1, IIIB, 50% normal human serum, read-out: Viking, IC50 (50% NHS)
[4] = 50% normal human serum, read-out: Viking, IC50 (50% NHS)
[5] = 10% normal human serum, read-out: Viking, IC50 (10% NHS)

Row | GI Tract stability [1] | SMILES | IC50 (HIV-1 (H9/IIIB strain); [2]) | IC50 (HIV-1 (H9/IIIB strain); [3]) | IC50 (HIV-1 (H9/IIIB strain); [4]) | IC50 (HIV-1 (H9/IIIB strain); [5])
1 | 99.70% | CC(C)OC(=O)COP(=O)(CO[C@H](C)Cn1cnc2c(N)ncnc21)NC1(C(=O)OC(C)C)CCCCC1 (stereo partly drawn) [Example 51, Isopropyl 1-((((((R)-1-(6-amino-9H-purin-9-yl)propan-2-yl)oxy)methyl)(2-isopropoxy-2-oxoethoxy)phosphoryl)amino) cyclohexane-1-carboxylate] | 9.8 nM | 24.9 nM |  | 
2 | 7.19% | CC(C)OC(=O)[C@@H](C)OP(=O)(CO[C@H](C)Cn1cnc2c(N)ncnc21)NC(C)(C)C(=O)OC(C)C (stereo partly drawn) [Example 20, Isopropyl 2-((((((R)-1-(6-amino-9H-purin-9-yl)propan-2-yl)oxy)methyl)(((R)-1-isopropoxy-1-oxopropan-2-yl)oxy)phosphoryl)amino)-2-methylpropanoate] | 21 nM | 97 nM |  | 
3 | 99.72% | CC(C)OC(=O)C(C)(C)NP(=O)(CO[C@H](C)Cn1cnc2c(N)ncnc21)O[C@@H](C)C(=O)OC1CCCC1 (single isomer, unassigned) [Example 13B] |  |  | 60.2 nM | 9.44 nM
4 | 26.96% | CCCCCCOC(=O)C(C)(C)NP(=O)(CO[C@H](C)Cn1cnc2c(N)ncnc21)O[C@@H](Cc1ccccc1)C(=O)OC(C)C (stereo partly drawn) [Example 33, Hexyl 2-((((((R)-1-(6-amino-9H-purin-9-yl)propan-2-yl)oxy)methyl)(((S)-1-isopropoxy-1-oxo-3-phenylpropan-2-yl)oxy)phosphoryl)amino)-2-methylpropanoate] | 1.69 nM | 5.06 nM |  | 
5 | 4.28% | CCCOC(=O)C(C)(C)NP(=O)(CO[C@H](C)Cn1cnc2c(N)ncnc21)O[C@H](C)C(=O)OC(C)C (stereo partly drawn) [Example 23, Propyl 2-((((((R)-1-(6-amino-9H-purin-9-yl)propan-2-yl)oxy)methyl)(((R)-1-isopropoxy-1-oxopropan-2-yl)oxy)phosphoryl)amino)-2-methylpropanoate] | 2.67 nM | 8.19 nM |  | 
6 | 98.30% | CCCCOC(=O)C(C)(C)NP(=O)(CO[C@H](C)Cn1cnc2c(N)ncnc21)OCC(=O)OC(C)C (stereo partly drawn) [Example 24, Butyl 2-((((((R)-1-(6-amino-9H-purin-9-yl)propan-2-yl)oxy)methyl)(2-isopropoxy-2-oxoethoxy)phosphoryl)amino)-2-methylpropanoate] | 4.78 nM | 27.8 nM |  | 
7 | 9.01% | CCCCOC(=O)C(C)(C)NP(=O)(CO[C@H](C)Cn1cnc2c(N)ncnc21)O[C@H](C)C(=O)OC(C)C (stereo partly drawn) [Example 26, Butyl 2-((((((R)-1-(6-amino-9H-purin-9-yl)propan-2-yl)oxy)methyl)(((R)-1-isopropoxy-1-oxopropan-2-yl)oxy)phosphoryl)amino)-2-methylpropanoate] | 3.1 nM | 8.74 nM |  | 
8 | 71.6% | CCCCCOC(=O)COP(=O)(CO[C@H](C)Cn1cnc2c(N)ncnc21)NC(C)(C)C(=O)OC(C)C (single isomer, unassigned) [Example 8B] |  |  | 161 nM | 22.7 nM
9 | 100.00% | CCCCCOC(=O)C(C)(C)NP(=O)(CO[C@H](C)Cn1cnc2c(N)ncnc21)O[C@@H](C)C(=O)OC1CCCC1 (single isomer, unassigned) [Example 19B] |  |  | 9.93 nM | 3.01 nM
10 | 73.54% | CC(C)OC(=O)COP(=O)(CO[C@H](C)Cn1cnc2c(N)ncnc21)NC(C)(C)C(=O)OCc1ccccc1 (mixture of isomers) [Example 42, Benzyl 2-((((((R)-1-(6-amino-9H-purin-9-yl)propan-2-yl)oxy)methyl)(2-isopropoxy-2-oxoethoxy)phosphoryl)amino)-2-methylpropanoate] | 5 nM | 21.8 nM |  | 
11 |  | CC(C)OC(=O)[C@H](C)OP(=O)(CO[C@H](C)Cn1cnc2c(N)ncnc21)NC(C)(C)C(=O)OC1CCCCC1 (single isomer, unassigned) [Example 12B] |  |  | 13.5 nM | 6.07 nM
12 |  | CC(C)COC(=O)C(C)(C)NP(=O)(CO[C@H](C)Cn1cnc2c(N)ncnc21)OCC(=O)OC(C)C (stereo partly drawn) [Example 30, Isobutyl 2-((((((R)-1-(6-amino-9H-purin-9-yl)propan-2-yl)oxy)methyl)(2-isopropoxy-2-oxoethoxy)phosphoryl)amino)-2-methylpropanoate] | 4.38 nM | 12 nM |  | 
13 |  | CC(C)OC(=O)[C@H](C)OP(=O)(CO[C@H](C)Cn1cnc2c(N)ncnc21)NC1(C(=O)OC(C)C)CCCCC1 (stereo partly drawn) [Example 52, Isopropyl 1-((((((R)-1-(6-amino-9H-purin-9-yl)propan-2-yl)oxy)methyl)(((S)-1-isopropoxy-1-oxopropan-2-yl)oxy)phosphoryl)amino)cyclo-hexane-1-carboxylate] | 10.8 nM | 45.6 nM |  | 
14 |  | CCCCOC(=O)C(C)(C)NP(=O)(CO[C@H](C)Cn1cnc2c(N)ncnc21)O[C@@H](C)C(=O)OC1CCCC1 (single isomer, unassigned) [Example 11A] |  |  | 66.2 nM | 24.8 nM
15 |  | CC(C)OC(=O)[C@H](C)OP(=O)(CO[C@H](C)Cn1cnc2c(N)ncnc21)NC(C)(C)C(=O)OC1CCC1 (single isomer, unassigned) [Example 16A] | 2.61 nM |  | 7.5 nM | 
16 |  | CC(C)OC(=O)COP(=O)(CO[C@H](C)Cn1cnc2c(N)ncnc21)NC(C)(C)C(=O)OC1CCCC1 (single isomer, unassigned) [Example 14A] | 10 nM | 23.5 nM |  | 
17 |  | CCCCCOC(=O)[C@H](C)OP(=O)(CO[C@H](C)Cn1cnc2c(N)ncnc21)NC(C)(C)C(=O)OC(C)C (single isomer, unassigned) [Example 10A] |  |  | 142 nM | 26.3 nM
18 |  | CCCCCCOC(=O)C(C)(C)NP(=O)(CO[C@H](C)Cn1cnc2c(N)ncnc21)OCC(=O)OC1CCCC1 (stereo partly shown) [Example 35] | 3.83 nM | 14 nM |  | 

Row | SMILES | GI Tract stability [1] | IC50 (HIV-1 (H9/IIIB strain); [2]) | IC50 (HIV-1 (H9/IIIB strain); [3]) | IC50 (HIV-1 (H9/IIIB strain); [4]) | IC50 (HIV-1 (H9/IIIB strain); [5])
19 | CC(C)OC(=O)COP(=O)(CO[C@H](C)Cn1cnc2c(N)ncnc21)NC(C)(C)C(=O)OC(C)C (single isomer, unassigned) [Example 3A] | 96.63% | 36.6 nM |  | 121 nM | 
20 | CCCCCOC(=O)C(C)(C)NP(=O)(CO[C@H](C)Cn1cnc2c(N)ncnc21)OCC(=O)OC(C)C (single isomer, unassigned) [Example 4B] | 98.87% |  |  | 158 nM | 19.4 nM
21 | CC(C)OC(=O)COP(=O)(CO[C@H](C)Cn1cnc2c(N)ncnc21)NC(C)(C)C(=O)OC(C)C (single isomer, unassigned) [Example 3B] | 95.71% |  |  | 47.9 nM | 29.1 nM

Reference: patent US10449208B2, “Antiviral prodrugs of tenofovir” (Merck Sharp & Dohme Corp., priority 2016, dated 2019)
